# ChEMBL document CHEMBL5537206 (J Med Chem, 2024)
# Activity calls are given as the source filed them. The rule behind the calls is not given here.
# Columns and labels:
# [1] = test system: Osimertinib-resistant NCI-H1975 cell; assay: Antiproliferative activity against human Osimertinib-resistant NCI-H1975 cell (AZDR) incubated for 72 hrs by MTT assay; assay type: functional, cell-based
# NCI-H1975 = assay: Antiproliferative activity against human NCI-H1975 cells incubated for 72 hrs by MTT assay; assay type: functional, cell-based; conditions: NCI-H1975, 72 h
# MCF7 = assay: Antiproliferative activity against human MCF7 cells incubated for 72 hrs by MTT assay; assay type: functional, cell-based; conditions: MCF7, 72 h
# [2] = test system: Osimertinib-resistant NCI-H1975 cell; assay: Induction of apoptosis in human Osimertinib-resistant NCI-H1975 cell (AZDR) assessed as early apoptotic cells at 1 uM incubated for 24 hrs by Annexin V and propidium iodide staining based flow cytometry analysis (reference value: 3.38%); assay type: functional
# [3] = test system: Osimertinib-resistant NCI-H1975 cell; assay: Induction of apoptosis in human Osimertinib-resistant NCI-H1975 cell (AZDR) assessed as late apoptotic cells at 1 uM incubated for 24 hrs by Annexin V and propidium iodide staining based flow cytometry analysis (reference value: 1.06%); assay type: functional
# [4] = test system: Osimertinib-resistant NCI-H1975 cell; assay: Induction of apoptosis in human Osimertinib-resistant NCI-H1975 cell (AZDR) assessed as early apoptotic cells at 1 uM incubated for 24 hrs in presence of dasatinib by Annexin V and propidium iodide staining based flow cytometry analysis (reference value: 3.38%); assay type: functional
# [5] = test system: Osimertinib-resistant NCI-H1975 cell; assay: Induction of apoptosis in human Osimertinib-resistant NCI-H1975 cell (AZDR) assessed as late apoptotic cells at 1 uM incubated for 24 hrs in presence of dasatinib by Annexin V and propidium iodide staining based flow cytometry analysis (reference value: 1.06%); assay type: functional
# Mus musculus [6] = assay: In vivo inhibition of EGFR L858R/T790M mutant in BALB/c nude mouse xenografted with human Osimertinib-resistant NCI-H1975 cell (AZDR) assessed as downregulation of EGFR phosphorylation at 10 mg/kg, po measured after 22 days; assay type: functional, organism-based; conditions: time 22.0 day
# Mus musculus [7] = assay: In vivo inhibition of EGFR L858R/T790M mutant in BALB/c nude mouse xenografted with human Osimertinib-resistant NCI-H1975 cell (AZDR) assessed as downregulation of AKT phosphorylation at 10 mg/kg, po measured after 22 days; assay type: functional, organism-based; conditions: time 22.0 day
# Mus musculus [8] = assay: In vivo inhibition of ACK1 in BALB/c nude mouse xenografted with human Osimertinib-resistant NCI-H1975 cell (AZDR) assessed as downregulation of ACK1 phosphorylation at 10 mg/kg, po measured after 22 days; assay type: functional, organism-based; conditions: time 22.0 day
# [9] = test system: Osimertinib-resistant NCI-H1975 cell; assay: Anticancer activity against human Osimertinib-resistant NCI-H1975 cell (AZDR) xenografted in BALB/c nude mouse model assessed as increase in tumor cell apoptosis at 10 mg/kg, po by TUNEL assay; assay type: functional, organism-based
# [10] = test system: Osimertinib-resistant NCI-H1975 cell; assay: Anticancer activity against human Osimertinib-resistant NCI-H1975 cell (AZDR) xenografted in BALB/c nude mouse model assessed as increase in tumor cell apoptosis at 10 mg/kg, po in presence of dasatinib by TUNEL assay; assay type: functional, organism-based
# [11] = test system: Osimertinib-resistant NCI-H1975 cell; assay: Induction of apoptosis in human Osimertinib-resistant NCI-H1975 cell (AZDR) assessed as early apoptotic cells at 1 uM incubated for 24 hrs in presence of osimertinib by Annexin V and propidium iodide staining based flow cytometry analysis (reference value: 3.38%); assay type: functional
# [12] = test system: Osimertinib-resistant NCI-H1975 cell; assay: Induction of apoptosis in human Osimertinib-resistant NCI-H1975 cell (AZDR) assessed as late apoptotic cells at 1 uM incubated for 24 hrs in presence of osimertinib by Annexin V and propidium iodide staining based flow cytometry analysis (reference value: 1.06%); assay type: functional
# [13] = test system: Osimertinib-resistant NCI-H1975 cell; assay: Anticancer activity against human Osimertinib-resistant NCI-H1975 cell (AZDR) xenografted in BALB/c nude mouse model assessed as increase tumor cell apoptosis at 10 mg/kg, po in presence of osimertinib by TUNEL assay; assay type: functional, organism-based
# [14] = target: T1, Tyrosine-protein kinase ITK/TSK (Homo sapiens) (UniProt Q08881); assay: Inhibition of human ITK at 1 uM relative to control
# T1 sequence (whole entry): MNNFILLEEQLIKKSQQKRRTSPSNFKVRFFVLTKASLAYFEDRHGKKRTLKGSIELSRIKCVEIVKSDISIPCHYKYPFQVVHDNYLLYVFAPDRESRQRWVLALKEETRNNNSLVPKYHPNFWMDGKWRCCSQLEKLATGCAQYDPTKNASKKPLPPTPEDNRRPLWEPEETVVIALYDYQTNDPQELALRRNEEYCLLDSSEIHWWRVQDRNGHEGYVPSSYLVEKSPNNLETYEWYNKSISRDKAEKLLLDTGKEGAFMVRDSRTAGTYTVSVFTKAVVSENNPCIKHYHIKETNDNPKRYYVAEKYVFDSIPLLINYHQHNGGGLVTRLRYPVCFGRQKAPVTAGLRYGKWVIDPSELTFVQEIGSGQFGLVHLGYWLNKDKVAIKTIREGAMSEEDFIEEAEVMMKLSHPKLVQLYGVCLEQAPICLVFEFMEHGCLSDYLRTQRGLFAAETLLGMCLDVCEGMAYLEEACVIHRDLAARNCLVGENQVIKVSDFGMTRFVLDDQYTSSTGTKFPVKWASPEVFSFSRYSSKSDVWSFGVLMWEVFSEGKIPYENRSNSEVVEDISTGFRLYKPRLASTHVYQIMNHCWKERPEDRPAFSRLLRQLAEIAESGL
# [15] = target: T2, Serine/threonine-protein kinase AKT (Homo sapiens) (UniProt P31751+Q9Y243+P31749); assay: Inhibition of AKT phosphorylation in human NCI-H1975 cells incubated for 24 hrs by Western blot analysis; assay type: cell-based; conditions: dose 0.1-10 µM
# T2 sequence (P31749 whole entry, looked up): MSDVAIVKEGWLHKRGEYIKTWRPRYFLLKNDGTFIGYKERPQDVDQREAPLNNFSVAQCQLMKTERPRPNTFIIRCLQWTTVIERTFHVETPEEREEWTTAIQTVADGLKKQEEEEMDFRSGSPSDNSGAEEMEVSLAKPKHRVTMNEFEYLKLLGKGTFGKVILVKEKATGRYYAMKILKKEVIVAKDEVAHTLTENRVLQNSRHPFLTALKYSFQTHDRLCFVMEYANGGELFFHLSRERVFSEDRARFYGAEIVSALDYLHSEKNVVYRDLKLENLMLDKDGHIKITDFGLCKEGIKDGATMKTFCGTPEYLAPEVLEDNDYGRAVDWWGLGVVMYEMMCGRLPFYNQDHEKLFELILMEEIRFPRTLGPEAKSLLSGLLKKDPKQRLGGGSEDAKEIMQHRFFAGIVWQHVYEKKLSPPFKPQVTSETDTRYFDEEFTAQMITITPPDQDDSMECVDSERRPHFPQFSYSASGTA
# T2 sequence (P31751 whole entry, looked up): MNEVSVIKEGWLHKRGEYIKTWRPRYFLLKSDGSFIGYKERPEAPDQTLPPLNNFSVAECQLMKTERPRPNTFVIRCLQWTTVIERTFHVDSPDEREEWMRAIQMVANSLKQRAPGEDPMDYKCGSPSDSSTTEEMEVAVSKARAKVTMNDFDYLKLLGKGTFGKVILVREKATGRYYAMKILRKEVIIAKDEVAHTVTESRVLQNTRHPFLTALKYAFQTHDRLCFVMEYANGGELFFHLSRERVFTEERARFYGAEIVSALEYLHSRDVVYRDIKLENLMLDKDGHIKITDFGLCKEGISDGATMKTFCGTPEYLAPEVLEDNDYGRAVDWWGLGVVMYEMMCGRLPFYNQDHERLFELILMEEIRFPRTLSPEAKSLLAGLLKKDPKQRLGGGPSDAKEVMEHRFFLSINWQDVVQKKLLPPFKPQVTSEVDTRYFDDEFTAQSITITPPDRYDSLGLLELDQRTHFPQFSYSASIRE
# T2 sequence (Q9Y243 whole entry, looked up): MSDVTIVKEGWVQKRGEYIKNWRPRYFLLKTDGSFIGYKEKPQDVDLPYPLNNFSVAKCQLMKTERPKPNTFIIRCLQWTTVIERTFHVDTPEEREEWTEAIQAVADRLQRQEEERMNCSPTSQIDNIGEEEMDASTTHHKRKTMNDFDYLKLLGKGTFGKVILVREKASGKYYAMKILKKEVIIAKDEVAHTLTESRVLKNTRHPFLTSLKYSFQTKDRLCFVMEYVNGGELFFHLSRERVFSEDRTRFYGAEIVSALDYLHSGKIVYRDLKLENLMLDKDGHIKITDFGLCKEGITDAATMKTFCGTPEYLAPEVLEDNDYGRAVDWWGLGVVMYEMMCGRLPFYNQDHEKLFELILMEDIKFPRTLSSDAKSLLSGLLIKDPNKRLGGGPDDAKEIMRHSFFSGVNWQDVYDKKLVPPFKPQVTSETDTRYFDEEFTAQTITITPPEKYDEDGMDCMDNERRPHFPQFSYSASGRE
# [16] = target: T2, Serine/threonine-protein kinase AKT (Homo sapiens); assay: Inhibition of AKT phosphorylation in human Osimertinib-resistant NCI-H1975 cell (AZDR) at 0.1 to 10 uM incubated for 24 hrs by Western blot analysis; assay type: cell-based; conditions: dose 0.1-10 µM
# [17] = test system: Osimertinib-resistant NCI-H1975 cell; assay: Induction of apoptosis in human Osimertinib-resistant NCI-H1975 cell (AZDR) assessed as early apoptotic cells at 0.1 uM incubated for 24 hrs by Annexin V and propidium iodide staining based flow cytometry analysis (reference value: 3.38%); assay type: functional
# [18] = test system: Osimertinib-resistant NCI-H1975 cell; assay: Induction of apoptosis in human Osimertinib-resistant NCI-H1975 cell (AZDR) assessed as early apoptotic cells at 10 uM incubated for 24 hrs by Annexin V and propidium iodide staining based flow cytometry analysis (reference value: 3.38%); assay type: functional
# [19] = test system: Osimertinib-resistant NCI-H1975 cell; assay: Induction of apoptosis in human Osimertinib-resistant NCI-H1975 cell (AZDR) assessed as late apoptotic cells at 0.1 uM incubated for 24 hrs by Annexin V and propidium iodide staining based flow cytometry analysis (reference value: 1.06%); assay type: functional
# [20] = test system: Osimertinib-resistant NCI-H1975 cell; assay: Induction of apoptosis in human Osimertinib-resistant NCI-H1975 cell (AZDR) assessed as late apoptotic cells at 10 uM incubated for 24 hrs by Annexin V and propidium iodide staining based flow cytometry analysis (reference value: 1.06%); assay type: functional
# [21] = test system: Osimertinib-resistant NCI-H1975 cell; assay: Induction of apoptosis in human Osimertinib-resistant NCI-H1975 cell (AZDR) assessed as caspase3/7 activation using caspase-glo 3/7 as substrate incubated for 24 hrs by luminescence based analysis; assay type: functional; conditions: dose 0.1-10 µM
# [22] = test system: Osimertinib-resistant NCI-H1975 cell; assay: Induction of apoptosis in human Osimertinib-resistant NCI-H1975 cell (AZDR) assessed as caspase3/7 activation using caspase-glo 3/7 as substrate at 0.1 to 10 uM by luminescence based analysis; assay type: functional; conditions: dose 0.1-10 µM, time 24-72 hrs, TDE = time-dependent effect
# [23] = test system: Osimertinib-resistant NCI-H1975 cell; assay: Induction of apoptosis in human Osimertinib-resistant NCI-H1975 cell (AZDR) assessed as increase in number of apoptotic cells measured after 24 hrs by Hoechst 33258 staining based analysis; assay type: functional; conditions: dose 0.1-10 µM
# [24] = test system: Osimertinib-resistant NCI-H1975 cell; assay: Inhibition of colony formation in human Osimertinib-resistant NCI-H1975 cell (AZDR) measured after 14 days by crystal violet staining based analysis; assay type: functional; conditions: dose 0.1-10 µM, time 14.0 day
# [25] = test system: Osimertinib-resistant NCI-H1975 cell; assay: Inhibition of cell migration in human Osimertinib-resistant NCI-H1975 cell (AZDR) measured after 24 hrs by wound healing assay; assay type: functional, cell-based; conditions: dose 0.1-10 µM
# [26] = test system: Osimertinib-resistant NCI-H1975 cell; assay: Anticancer activity against human Osimertinib-resistant NCI-H1975 cell (AZDR) xenografted in BALB/c nude mouse model assessed as inhibition of tumor growth administered as ip dose and measured upto 22 days; assay type: functional, organism-based; conditions: dose 20-60 mg/kg, time <= 22.0 day
# [27] = test system: Osimertinib-resistant NCI-H1975 cell; assay: Anticancer activity against human Osimertinib-resistant NCI-H1975 cell (AZDR) xenografted in BALB/c nude mouse model assessed as reduction in tumor weight administered as ip dose and measured upto 22 days; assay type: functional, organism-based; conditions: dose 20-60 mg/kg, time <= 22.0 day
# [28] = Toxicity in BALB/c nude mouse assessed as effect on body weight at 20 to 60 mg/kg, ip measured upto 22 days; assay type: organism-based; conditions: in vivo, 528 h, dose 20-60 mg/kg, time < 22 day
# Mus musculus [29] = assay: In vivo inhibition of EGFR L858R/T790M mutant in BALB/c nude mouse xenografted with human Osimertinib-resistant NCI-H1975 cell (AZDR) assessed as downregulation of AKT phosphorylation at 60 mg/kg, ip measured after 22 days; assay type: functional, organism-based; conditions: time 22.0 day
# [30] = Stability of the compound assessed as half life in presence of glutathione at pH 7.4; assay type: physicochemical; conditions: solution containing glutathione
# [31] = test system: Osimertinib-resistant NCI-H1975 cell; assay: Anticancer activity against human Osimertinib-resistant NCI-H1975 cell (AZDR) xenografted in BALB/c nude mouse model assessed as increase in tumor cell apoptosis administered as ip dose by TUNEL assay; assay type: functional, organism-based; conditions: dose 20-60 mg/kg
# [32] = Toxicity in BALB/c nude mouse assessed as effect on heart at 20 to 60 mg/kg, ip measured after 22 days by H and E staining based analysis; assay type: organism-based; conditions: in vivo, 528 h, dose 20-60 mg/kg, time 22 day
# [33] = Toxicity in BALB/c nude mouse assessed as effect on lung at 20 to 60 mg/kg, ip measured after 22 days by H and E staining based analysis; assay type: organism-based; conditions: in vivo, 528 h, dose 20-60 mg/kg, time 22 day
# [34] = Toxicity in BALB/c nude mouse assessed as effect on liver at 20 to 60 mg/kg, ip measured after 22 days by H and E staining based analysis; assay type: organism-based; conditions: in vivo, 528 h, dose 20-60 mg/kg, time 22 day
# [35] = Toxicity in BALB/c nude mouse assessed as effect on spleen at 20 to 60 mg/kg, ip measured after 22 days by H and E staining based analysis; assay type: organism-based; conditions: in vivo, 528 h, dose 20-60 mg/kg, time 22 day
# [36] = Toxicity in BALB/c nude mouse assessed as effect on kidney at 20 to 60 mg/kg, ip measured after 22 days by H and E staining based analysis; assay type: organism-based; conditions: in vivo, 528 h, dose 20-60 mg/kg, time 22 day
smiles,measurement,setting,value
C=CC(=O)Nc1cc(Nc2nccc(-c3cn(C)c4ccccc34)n2)c(OC)cc1N(C)CCN(C)C [OSIMERTINIB],IC50,[1],4 µM
same,IC50,NCI-H1975,0.015 µM
same,IC50,MCF7,1.16 µM
same,Activity,[2],2.86%
same,Activity,[3],1.22%
same,Activity,[4],19.6%
same,Activity,[5],20.6%
same,inhibition,Mus musculus [6],Active
same,inhibition,Mus musculus [7],inactive
same,inhibition,Mus musculus [8],Active
same,Activity,[9],inactive
same,Activity,[10],Active
Cc1nc(Nc2ncc(C(=O)Nc3c(C)cccc3Cl)s2)cc(N2CCN(CCO)CC2)n1 [DASATINIB ANHYDROUS],Activity,[2],10.2%
same,Activity,[3],7.4%
same,Activity,[11],19.6%
same,Activity,[12],20.6%
same,inhibition,Mus musculus [6],Active
same,inhibition,Mus musculus [7],inactive
same,inhibition,Mus musculus [8],Active
same,Activity,[9],inactive
same,Activity,[13],Active
C=CC(=O)Nc1cccc(Nc2nc(Nc3cnn(CC)c3)nc3ccc(Cl)cc23)c1,IC50,[1],0.67 µM
same,IC50,NCI-H1975,1.04 µM
same,IC50,MCF7,1.27 µM
same,inhibition,[14],81%
same,inhibition,[15],Dose-Dependent Effect
same,inhibition,[16],Active
same,Activity,[17],10.7%
same,Activity,[2],17.1%
same,Activity,[18],48.6%
same,Activity,[19],9.97%
same,Activity,[3],16.1%
same,Activity,[20],30.7%
same,Activity,[21],Dose-Dependent Effect
same,Activity,[22],Tde
same,Activity,[23],Dose-Dependent Effect
same,inhibition,[24],Dose-Dependent Effect
same,inhibition,[25],Active
same,Activity,[26],Dose-Dependent Effect
same,Activity,[27],Dose-Dependent Effect
same,Activity,[28],Non-Toxic
same,inhibition,Mus musculus [29],Active
same,half-life,[30],13.8 h
same,Activity,[31],Dose-Dependent Effect
same,Activity,[32],Non-Toxic
same,Activity,[33],Non-Toxic
same,Activity,[34],Non-Toxic
same,Activity,[35],Non-Toxic
same,Activity,[36],Non-Toxic
C=CC(=O)Nc1cccc(Nc2nc(Nc3cnn(C)c3C)nc3ccc(Cl)cc23)c1,IC50,[1],3.4 µM
same,IC50,NCI-H1975,1.02 µM
same,IC50,MCF7,3.24 µM
